Assay results as given in patent US8901309B2, “Fused triazoles for the treatment or prophylaxis of mild cognitive impairment” (Takeda Pharmaceutical Company Limited, priority 2010, dated 2014).

The compounds below were run on Aβ42 in hippocampi of C57BL/6J mice (assay: Hippocampal soluble Aβ42 ELISA in mice after oral administration). Conditions: 10 mg/kg orally, hippocampi isolated 3 hours after administration, soluble Aβ42 by ELISA, 10 mg/kg.
Assay type: in vivo, mouse
Experimental: Measurement of Amyloid β Production Inhibition Rate Using Primary Nerve Cell
C57BL/6J mice (7-10 weeks old) were purchased from CLEA Japan Inc. Mice were housed in groups and kept on a 12h-light; 12h-dark schedule. All mice were given ad libitum access to food and water.
Each test compound was reconstituted in solubilization buffer ([DMSO (Wako)]: [10% Cremophor (Nakarai)+30% polyethylene glycol 400 (Wako)+60% 2 mol/L Citrate buffer (Wako)]=1:9) and orally administrated at 10 mg/kg.
Hippocampi was isolated from animals, 3 hours after test compounds were orally administrated. Hippocampi were homogenized in ice-cold Tris-extraction buffer (50 mmol/L Tris-HCl, pH 7.2, 200 mmol/L sodium chloride, 2% protease-free bovine serum albumin, and 0.01% sodium merthiolate) containing protease inhibitor cocktails (Roche, Switzerland). After centrifugation at 15,000 rpm for 15 minutes, the supernatants were subjected to two-site sandwich ELISA to measure amount of soluble Aβ. Aβ42 was quantitated by two-site sandwich ELISA using BNT77, which recognizes Aβ11-28, as a capture antibody and BC05-HRP as a detector antibody, respectively.

Structure (SMILES)	Aβ42 production inhibitory activity (% inhibition)
COc1cc(-c2nnc3n2CCCC3(Oc2ccc(C(F)(F)F)cc2)C(C)(C)O)ccc1-c1cnc(C)o1 (stereo not drawn) [Example 104, 2-{3-[3-methoxy-4-(2-methyl-1,3-oxazol-5-yl)phenyl]-8-[4-(trifluoromethyl)phenoxy]-5,6,7,8-tetrahydro[1,2,4]triazolo[4,3-a]pyridin-8-yl}propan-2-ol]	36
COc1cc(-c2nnc3n2CCCC3(Oc2cccc(C(F)(F)F)c2)C(C)(C)O)ccc1-c1cnc(C)o1 (stereo not drawn) [Example 130, 2-{3-[3-methoxy-4-(2-methyl-1,3-oxazol-5-yl)phenyl]-8-[3-(trifluoromethyl)phenoxy]-5,6,7,8-tetrahydro[1,2,4]triazolo[4,3-a]pyridin-8-yl}propan-2-ol]	59
COc1cc(-c2nnc3n2CCCC3(Oc2ccc(C(F)(F)F)cc2)C(C)(C)O)ccc1-c1cnc(C)o1 (stereo not drawn) [Example 132, 2-{3-[3-methoxy-4-(2-methyl-1,3-oxazol-5-yl)phenyl]-8-[4-(trifluoromethyl)phenoxy]-5,6,7,8-tetrahydro[1,2,4]triazolo[4,3-a]pyridin-8-yl}propan-2-ol]	58
COc1cc(-c2nnc3n2CCCC3(Oc2ccc(F)c(F)c2)C(C)(C)O)ccc1-c1cnc(C)o1 (stereo not drawn) [Example 92, 2-{8-(3,4-difluorophenoxy)-3-[3-methoxy-4-(2-methyl-1,3-oxazol-5-yl)phenyl]-5,6,7,8-tetrahydro[1,2,4]triazolo[4,3-a]pyridin-8-yl}propan-2-ol]	32
COc1nc(-c2nnc3n2CCCC3(Oc2ccc(F)c(C(F)(F)F)c2)C(C)(C)O)ccc1-n1cnc(C)c1 (stereo not drawn) [Example 2, 2-{8-[4-fluoro-3-(trifluoromethyl)phenoxy]-3-[6-methoxy-5-(4-methyl-1H-imidazol-1-yl)pyridin-2-yl]-5,6,7,8-tetrahydro[1,2,4]triazolo[4,3-a]pyridin-8-yl}propan-2-ol]	48
COc1cc(-c2nnc3n2CCCC3(Oc2cc(F)cc(F)c2)C(C)(C)O)ccc1-c1cnc(C)o1 (stereo not drawn) [Example 155, 2-{8-(3,5-difluorophenoxy)-3-[3-methoxy-4-(2-methyl-1,3-oxazol-5-yl)phenyl]-5,6,7,8-tetrahydro[1,2,4]triazolo[4,3-a]pyridin-8-yl}propan-2-ol]	56

Same assay, conditions: Mus musculus, po, 3 h, 10 mg/kg orally, hippocampi isolated 3 hours after administration, soluble Aβ42 by ELISA, read-out: Aβ42 production inhibitory activity (% inhibition)

Structure (SMILES)	inhibition in vivo at 10 mg/kg [%]
COc1nc(-c2nnc3n2CCC[C@]3(Oc2cc(F)c(F)c(F)c2)C(C)(C)O)ccc1-n1cnc(C)c1 [Example 152, 2-{(8R)-3-[6-methoxy-5-(4-methyl-1H-imidazol-1-yl)pyridin-2-yl]-8-(3,4,5-trifluorophenoxy)-5,6,7,8-tetrahydro[1,2,4]triazolo[4,3-a]pyridin-8-yl}propan-2-ol]	57
COc1cc(-c2nnc3n2CCCC3(Oc2ccc(Cl)c(F)c2)C(C)(C)O)ccc1-c1cnc(C)o1 (stereo not drawn) [Example 111, 2-{8-(4-chloro-3-fluorophenoxy)-3-[3-methoxy-4-(2-methyl-1,3-oxazol-5-yl)phenyl]-5,6,7,8-tetrahydro[1,2,4]triazolo[4,3-a]pyridin-8-yl}propan-2-ol]	46
COc1cc(-c2nnc3n2CCCC3(Oc2cc(F)c(F)c(F)c2)C(C)(C)O)c(F)cc1-c1cnc(C)o1 (stereo not drawn) [Example 162, 2-{3-[2-fluoro-5-methoxy-4-(2-methyl-1,3-oxazol-5-yl)phenyl]-8-(3,4,5-trifluorophenoxy)-5,6,7,8-tetrahydro[1,2,4]triazolo[4,3-a]pyridin-8-yl}propan-2-ol]	26
COc1nc(-c2nnc3n2CCCC3(Oc2cc(F)c(F)c(F)c2)C(C)(C)O)ccc1-c1cnc(C)o1 (stereo not drawn) [Example 172, 2-{3-[6-methoxy-5-(2-methyl-1,3-oxazol-5-yl)pyridin-2-yl]-8-(3,4,5-trifluorophenoxy)-5,6,7,8-tetrahydro[1,2,4]triazolo[4,3-a]pyridin-8-yl}propan-2-ol]	35
COc1cc(-c2nnc3n2CCCC3(CC2CC2)c2ccc(F)c(F)c2)ccc1-c1cnc(C)o1 (stereo not drawn) [Example 21, optically active 8-(cyclopropylmethyl)-8-(3,4-difluorophenyl)-3-[3-methoxy-4-(2-methyl-1,3-oxazol-5-yl)phenyl]-5,6,7,8-tetrahydro[1,2,4]triazolo[4,3-a]pyridine]	39
COc1cc(-c2nnc3n2CCC[C@]3(Oc2cc(F)c(F)c(F)c2)C(C)(C)O)ccc1-c1cnc(C)o1 [Example 122, 2-{(8R)-3-[3-methoxy-4-(2-methyl-1,3-oxazol-5-yl)phenyl]-8-(3,4,5-trifluorophenoxy)-5,6,7,8-tetrahydro[1,2,4]triazolo[4,3-a]pyridin-8-yl}propan-2-ol]	54
COc1cc(-c2nnc3n2CCCC3(Oc2cc(F)c(F)c(F)c2)C(C)(C)O)ccc1-c1cnc(C)o1 (stereo not drawn) [Example 99, 2-{3-[3-methoxy-4-(2-methyl-1,3-oxazol-5-yl)phenyl]-8-(3,4,5-trifluorophenoxy)-5,6,7,8-tetrahydro[1,2,4]triazolo[4,3-a]pyridin-8-yl}propan-2-ol]	34
COc1cc(-c2nnc3n2CCCC3(Oc2ccc(Cl)c(C(F)(F)F)c2)C(C)(C)O)ccc1-n1cnc(C)n1 (stereo not drawn) [Example 139, 2-{8-[4-chloro-3-(trifluoromethyl)phenoxy]-3-[3-methoxy-4-(3-methyl-1H-1,2,4-triazol-1-yl)phenyl]-5,6,7,8-tetrahydro[1,2,4]triazolo[4,3-a]pyridin-8-yl}propan-2-ol]	22
COc1cc(-c2nnc3n2CCCC3(Oc2ccc(F)c(F)c2)C(C)(C)O)ccc1-c1cnc(C)o1 (stereo not drawn) [Example 124, 2-{8-(3,4-difluorophenoxy)-3-[3-methoxy-4-(2-methyl-1,3-oxazol-5-yl)phenyl]-5,6,7,8-tetrahydro[1,2,4]triazolo[4,3-a]pyridin-8-yl}propan-2-ol]	41
COc1nc(-c2nnc3n2CCCC3(Oc2ccc(F)c(C(F)(F)F)c2)C(C)(C)O)ccc1-n1cnc(C)c1 (stereo not drawn) [Example 157, 2-{8-[4-fluoro-3-(trifluoromethyl)phenoxy]-3-[6-methoxy-5-(4-methyl-1H-imidazol-1-yl)pyridin-2-yl]-5,6,7,8-tetrahydro[1,2,4]triazolo[4,3-a]pyridin-8-yl}propan-2-ol]	61
COc1cc(-c2nnc3n2CCCC3(Oc2cc(F)cc(F)c2)C(C)(C)O)ccc1-c1cnc(C)o1 (stereo not drawn) [Example 141, 2-{8-(3,5-difluorophenoxy)-3-[3-methoxy-4-(2-methyl-1,3-oxazol-5-yl)phenyl]-5,6,7,8-tetrahydro[1,2,4]triazolo[4,3-a]pyridin-8-yl}propan-2-ol]	46
CCC(O)(CC)C1(Oc2ccc(Cl)c(F)c2)CCCn2c(-c3ccc(-c4cnc(C)o4)c(OC)c3)nnc21 (stereo not drawn) [Example 120, 3-{8-(4-chloro-3-fluorophenoxy)-3-[3-methoxy-4-(2-methyl-1,3-oxazol-5-yl)phenyl]-5,6,7,8-tetrahydro[1,2,4]triazolo[4,3-a]pyridin-8-yl}pentan-3-ol]	21
COc1nc(-c2nnc3n2CCCC3(Oc2cc(F)c(F)c(F)c2)C(C)(C)O)ccc1-n1cnc(C)c1 (stereo not drawn) [Example 134, 2-{3-[6-methoxy-5-(4-methyl-1H-imidazol-1-yl)pyridin-2-yl]-8-(3,4,5-trifluorophenoxy)-5,6,7,8-tetrahydro[1,2,4]triazolo[4,3-a]pyridin-8-yl}propan-2-ol]	31
COc1cc(-c2nnc3n2CCCC3(Oc2cc(F)c(F)c(F)c2)C(C)(C)O)ccc1-c1cnn(C)c1 (stereo not drawn) [Example 144, 2-{3-[3-methoxy-4-(1-methyl-1H-pyrazol-4-yl)phenyl]-8-(3,4,5-trifluorophenoxy)-5,6,7,8-tetrahydro[1,2,4]triazolo[4,3-a]pyridin-8-yl}propan-2-ol]	31
COc1cc(-c2nnc3n2CCCC3(Oc2cccc(C(F)(F)F)c2)C(C)(C)O)ccc1-c1cnc(C)o1 (stereo not drawn) [Example 103, 2-{3-[3-methoxy-4-(2-methyl-1,3-oxazol-5-yl)phenyl]-8-[3-(trifluoromethyl)phenoxy]-5,6,7,8-tetrahydro[1,2,4]triazolo[4,3-a]pyridin-8-yl}propan-2-ol]	42
COc1nc(-c2nnc3n2CCCC3(Oc2ccc(Cl)c(F)c2)C(C)(C)O)ccc1-n1cnc(C)c1 (stereo not drawn) [Example 1, 2-{8-(4-chloro-3-fluorophenoxy)-3-[6-methoxy-5-(4-methyl-1H-imidazol-1-yl)pyridin-2-yl]-5,6,7,8-tetrahydro[1,2,4]triazolo[4,3-a]pyridin-8-yl}propan-2-ol]	40
COc1cc(-c2nnc3n2CCCC3(COc2ccc(Cl)cc2)C(C)(C)O)ccc1-c1cnc(C)o1 (stereo not drawn) [Example 127, 2-{8-[(4-chlorophenoxy)methyl]-3-[3-methoxy-4-(2-methyl-1,3-oxazol-5-yl)phenyl]-5,6,7,8-tetrahydro[1,2,4]triazolo[4,3-a]pyridin-8-yl}propan-2-ol]	21
COc1cc(-c2nnn3c2CCCC3(Oc2cc(F)c(F)c(F)c2)C(C)(C)O)ccc1-c1cnc(C)o1 (stereo not drawn) [Example 186, 2-{3-[3-methoxy-4-(2-methyl-1,3-oxazol-5-yl)phenyl]-7-(3,4,5-trifluorophenoxy)-4,5,6,7-tetrahydro[1,2,3]triazolo[1,5-a]pyridin-7-yl}propan-2-ol]	22
